According to paper PMC11085308, “Design, Synthesis and Biological Activity of Novel Methoxy- and Hydroxy-Substituted N-Benzimidazole-Derived Carboxamides” (Molecules, 2024):
Converted amounts (≈) assume the structure as drawn.

How the values were obtained:
[1] = tested on: MCF-7 (human breast cancer); assay: Antiproliferative activity in vitro, MTT assay, 72 h; format: cell-based; settings: MCF7, 72 h incubation
Experimental: (§1) The experiments were carried out on four human cell lines which are derived from three cancer types: H460 (lung carcinoma), HCT 116 (colorectal carcinoma), MCF-7 (human breast cancer) and the non-cancerous cell line HEK 293 (human embryonic kidney).
(§2) The results are compared with the known antiproliferative agents doxorubicin and etoposide. […] Therefore, it is not clear whether the observed antiproliferative activity is due to the biological activity of the compounds or to precipitation.
(§3) The experiments were performed on four human cell lines, including HCT 116 (colon carcinoma), H 460 (lung carcinoma), MCF-7 (breast carcinoma) and HEK 293 (human embryonic kidney cells), in line with previously published experimental procedures. Briefly, the cells were grown in DMEM medium with the addition of 10% fetal bovine serum (FBS), 2 mM of L-glutamine, 100 U/mL of penicillin and 100 µg/mL of streptomycin and cultured as monolayers at 37 °C in a humidified atmosphere with 5% CO2. Cells were seeded at 2 × 10^3 cells/well in standard 96-well microtiter plates and left to attach for 24 h. The next day, a test compound was added in five serial 10-fold dilutions. The rate of cell growth was evaluated after 72 h of incubation with MTT assays. […] Each test was performed in quadruplicate in at least two individual experiments.

H460 (lung carcinoma) = assay: as above; format: cell-based; settings: Homo sapiens, NCI-H460, 72 h incubation
Experimental: as §1, §2, §3

[2] = tested on: HCT 116 (colorectal carcinoma); assay: as above; format: cell-based; settings: Homo sapiens, 72 h incubation, '-' with footnote a = did not show biological activity due to precipitation
Experimental: as §1, §2, §3

E. coli efflux del. = assay: microbe, parasite or virus in culture; format: cell-based, Escherichia coli; settings: broth microdilution, 16–24 h at 37 °C; unit inferred
Experimental: (§4) The in vitro antibacterial activity of the synthesized benzamides 7–12 and 31–37 was evaluated against a panel of eight different bacterial strains. The Gram-positive bacterial strains comprised S. aureus, S. pneumoniae and E. faecalis, and the panel of Gram-negative bacteria consisted of E. coli, K. pneumoniae, A. baumannii and P. aeruginosa.
(§5) The selected bacterial strains were Gram-negative Escherichia coli (ATCC 25922) and Gram-positive Staphylococcus aureus (ATCC 29213) and S. Pneumoniae (ATCC 49619). The Saccharomyces cerevisiae ATCC 7752 strain was tested as a eukaryotic model organism. Synthesized compounds were prepared as 10 mM DMSO solutions and tested in a final concentration range of 100–0.2 µM [39].
(§6) Broth microdilution testing was performed according to CLSI (Clinical Laboratory Standards Institute) guidelines. The MIC (minimal inhibitory concentration) value was defined as the last tested concentration of a compound at which there is no visible growth of bacteria. Inoculums for each microorganism were prepared using the direct colony suspension method, where broth solutions that achieved turbidity equivalent to 0.5 McFarland standards were additionally diluted 100× with cation-adjusted MH media (Becton Dickinson). All test plates were incubated for 16–24 h at 37 °C.

[3] = tested on: H460, HCT 116, MCF-7, HEK 293; assay: Antiproliferative activity in vitro, MTT assay, range over the tested cell lines; format: cell-based, human; settings: Homo sapiens, read-out: IC50 range against the tested cell lines
Experimental: as §1, §2, §3

S. aureus ATCC 29213 = assay: Antibacterial activity in vitro, broth microdilution MIC; format: cell-based, Staphylococcus aureus; settings: for MIC S. aureus ATCC 29213: broth microdilution, 16–24 h at 37 °C, unit inferred
Experimental: as §4, §5, §6

E. faecalis ATCC 29212 = assay: as above; format: cell-based; settings: for Selectivity of antibacterial activity, in words: against the Gram-positive strain E. faecalis; for MIC E. faecalis ATCC 29212: broth microdilution, 16–24 h at 37 °C, unit inferred
Experimental: as §4, §5, §6

P. aeruginosa ATCC 27853 = assay: as above; format: cell-based; settings: 16–24 h at 37 °C, unit inferred
Experimental: as §4, §5, §6

A. baumannii ATCC 17978 = assay: as above; format: cell-based; settings: 16–24 h at 37 °C, unit inferred
Experimental: as §4, §5, §6

E. coli ATCC 25922 = assay: as above; format: cell-based, Escherichia coli; settings: 16–24 h at 37 °C, unit inferred
Experimental: as §4, §5, §6

[4] = tested on: HEK 293 (human embryonic kidney); assay: Antiproliferative activity in vitro, MTT assay, 72 h, non-cancerous cell line; format: cell-based; settings: HEK293, 72 h incubation, '-' with footnote a = did not show biological activity due to precipitation
Experimental: as §1, §2, §3

[5] = Ferric reducing/antioxidant power (FRAP assay); set-up: FRAP: unit not given here; settings: for FRAP: Fe2+ equivalents, triplicate
Experimental: (§7) The synthesized benzazole acrylonitrile derivatives were screened for their antioxidative potency by using in vitro assays, namely DPPH and ABTS as free radical scavenging assays and FRAP as a ferric reducing/antioxidant power assay.
The antioxidant activity of a substance is directly related to its reducing power.
The FRAP method was carried out according to previously described procedures with some modifications to make it compatible with an assay on a 96-well microplate. All results were expressed as Fe^2+ equivalents (Fe^2+ µmol). Ferrous sulphate (FeSO4 × 7H2O) was used to develop a standard curve of 20–2000 µmol/l for the FRAP test.

[6] = Solubility in water, seen as precipitation during incubation; format: physicochemical; settings: precipitation observed during the incubation period
Source text: Therefore, it is not clear whether the observed antiproliferative activity is due to the biological activity of the compounds or to precipitation.

HCT 116 cells = assay: Antioxidative activity assay in cells (ROS level, DCFH-DA fluorescence); format: cell-based, human; settings: HCT 116, TBHP 100 µM plus 10 µM compound, 1 h, compared to NAC
Source text: We further selected compounds 9, 10, 32 and 36, showing quite pronounced antioxidant capacity in the DPPH and FRAP assays, in order to test their pro- and antioxidant activity in tumor cells. In order to test the antioxidant activity of the selected compounds in tumor cells (Figure 2), we treated HCT 116 cells with tert-butyl hydroperoxide (TBHP), a substance commonly used for inducing oxidative stress in cells and tissues, alone or in combination with a known antioxidative agent, N-acetyl-L-cysteine (NAC), or the tested compounds. We measured the formation of oxidative stress byproducts using 2′,7′-dichlorodihydrofluorescein diacetate (DCFH-DA).
For the antioxidative activity assay, 2.5 × 10^4 cells were seeded into 96-well microtiter plates and left to attach for 24 h. The next day, cells were washed with PBS and incubated in FBS-free DMEM medium with 25 µM of DCFH-DA fluorescence dye. After 45 min of incubation, the medium was discarded, and the cells were washed with PBS.
After the washing step, the cells were incubated with 100 µM of tert-butyl hydroperoxide (TBHP) alone or in combination with antioxidative agents (50 mM of N-Acetyl-L-cysteine-NAC or 10 µM of the tested compounds) in PBS for 1 h at 37 °C. DCFH-DA fluorescence was recorded on a microplate fluorimeter reader (Tecan) with an excitation beam of 485 nm, while the emitted fluorescence was collected at 535 nm. All tests were presented as the means of two independent measurements carried out in triplicate. One-way ANOVA with Tukey’s post hoc test was used for statistical analysis: *—p < 0.05; **—p < 0.01; ***—p < 0.001.
Figure 2 Antioxidative activity of selected systems. HCT 116 cells were treated with a combination of H2O2 (4 mM) and N-acetyl-L-cysteine (NAC, 10 mM) or the tested compounds (10 mM). Treatment with H2O2 (4 mM) alone was used as a control for ROS induction. The level of reactive oxygen species (ROS) was measured with the fluorescent dye DCFH-DA using a fluorimeter. The data presented here are the results of three independent measurements carried out in triplicate. A one-way ANOVA with Tukey’s post hoc test was used for statistical analysis, *** p < 0.001; ns—not significant.

[7] = DPPH free radical scavenging assay; settings: compared to the standard BHT
Source text: as §7
The well-known antioxidant butylated hydroxytoluene (BHT) was used as a standard for comparing activity during testing. The DPPH assay is a standard commonly used test for the in vitro assessment of the antioxidant capacity of novel compounds by using their ability to scavenge the stable radical 1,1-diphenyl-picrylhydrazyl. […] Another test used to evaluate the antioxidative capacity of novel compounds was the ABTS test, by which their activity was evaluated by scavenging the stable radical 3-ethylbenzthiazoline-6-sulphonic acid.
Determination of the reducing activity of the stable radical 1,1-diphenyl-picrylhydrazyl (DPPH):
The reducing activity of the investigated systems was measured by the DPPH method according to previously described procedures with modifications to ensure their use on a 96-well microplate. Briefly, equal volumes of various concentrations of the tested molecules (dissolved in DMSO) were added to a solution of DPPH (final concentration of 50 µM in absolute ethanol). Ethanol and DMSO were used as control solutions in line with earlier reports. The radical scavenging activity was calculated using the following formula:[(A517 control − A517 compound)/A517 control] × 100.
The IC50 values were calculated from dose–response curves using nonlinear regression analysis with the GraphPad Prism 8 Ink. program. All measurements were carried out in triplicate.

Row | Compound | IC50 [1] [µM] | IC50 (H460 (lung carcinoma)) [µM] | IC50 [2] [µM] | MIC E. coli efflux del. (E. coli efflux del.) [µM] | IC50 [3] [µM] | MIC S. aureus ATCC 29213 (S. aureus ATCC 29213) [µM] | Selectivity of antibacterial activity, in words (E. faecalis ATCC 29212) | MIC E. faecalis ATCC 29212 (E. faecalis ATCC 29212) [µM] | MIC P. aeruginosa ATCC 27853 (P. aeruginosa ATCC 27853) [µM] | MIC A. baumannii ATCC 17978 (A. baumannii ATCC 17978) [µM] | MIC E. coli ATCC 25922 (E. coli ATCC 25922) [µM] | IC50 [4] [µM] | FRAP [5] | Solubility in water [6] | Level of ROS in cells under induced oxidative stress (HCT 116 cells) | MIC (S. aureus ATCC 29213; Staphylococcus aureus, ATCC29213, read-out: MIC S. aureus) [µM] | melting point [°C] | DPPH free radical scavenging activity, in words [7] | FRAP ferric reducing/antioxidant power, in words ([5]; compared to the standard BHT)
1 | Cn1c(NC(=O)c2ccccc2O)nc2cc(C#N)ccc21 [Compound 11, N-(5-cyano-1-methyl-1H-benzo[d]imidazol-2-yl)-2-hydroxybenzamide] | 1.2 ± 0.3 | > 100 | 3.7 ± 0.04 | > 64 | 1.2 to 5.3 | > 64 | selective antibacterial activity | 32 (≈ 9.35 µg/mL) | > 64 | > 64 | > 64 | 5.3 ± 0.6 | 422.55 ± 8.82 |  |  |  |  |  | 
2 | COc1ccc(C(=O)Nc2nc3cc(C#N)ccc3n2C)c(O)c1 [Compound 12, N-(5-cyano-1-methyl-1H-benzo[d]imidazol-2-yl)-2-hydroxy-4-methoxybenzamide] | 3.1 | > 100 |  | > 64 |  | > 64 | selective antibacterial activity | 32 (≈ 10.3 µg/mL) | > 64 | > 64 | > 64 |  | 592.86 ± 13.86 | low solubility in water |  |  |  |  | 
3 | Cn1c(NC(=O)c2cc(O)c(O)c(O)c2)nc2cc(C#N)ccc21 [Compound 36, N-(5-cyano-1-methyl-1H-benzo[d]imidazol-2-yl)-3,4,5-trihydroxybenzamide] | 4.8 ± 0.7 | 48.3 ± 10.5 | 19.3 ± 6.4 | > 64 |  | 32 (≈ 10.4 µg/mL) |  | 64 (≈ 20.8 µg/mL) | > 64 | > 64 | > 64 | 25.3 ± 0.7 | 2396.01 ± 35.27 |  | reducing the level of ROS in the cells | 32 (≈ 10.4 µg/mL) | 245 to 251 | significantly improved | excellent in vitro antioxidant activity
